Measured values as given in paper PMC2578980 (The Yale Journal of Biology and Medicine, 1998).

How the values were obtained:
human CCK-BR [1] = target: T1, human CCK-BR (Homo sapiens, UniProt P32239); assay: Inositol phosphate accumulation; assay type: cell-based; conditions: for effect on inositol phosphate production (intrinsic activity): high concentrations of non-peptide ligands
T1 sequence (P32239 1-447): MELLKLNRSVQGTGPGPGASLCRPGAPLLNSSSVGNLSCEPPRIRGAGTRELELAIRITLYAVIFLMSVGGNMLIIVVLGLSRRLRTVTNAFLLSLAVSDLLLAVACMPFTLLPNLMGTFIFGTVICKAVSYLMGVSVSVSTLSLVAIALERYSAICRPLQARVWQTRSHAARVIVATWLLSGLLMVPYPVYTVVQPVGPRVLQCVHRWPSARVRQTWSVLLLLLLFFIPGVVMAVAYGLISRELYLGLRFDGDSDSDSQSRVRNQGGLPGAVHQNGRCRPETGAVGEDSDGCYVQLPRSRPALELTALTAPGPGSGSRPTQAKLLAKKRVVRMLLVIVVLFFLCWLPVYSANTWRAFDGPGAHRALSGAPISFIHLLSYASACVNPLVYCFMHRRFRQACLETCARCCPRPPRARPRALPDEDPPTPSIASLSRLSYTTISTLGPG

human CCK-BR [2] = target: T1, human CCK-BR; conditions: human CCK-BR expressed in CHO instead of COS-7 cells; cited from earlier work
gastric acid secretion = conditions: cited from earlier work
human CCK-BR [3] = target: T1, human CCK-BR

Structure (SMILES)	effect on inositol phosphate production (intrinsic activity) (human CCK-BR [1])	functional classification in CHO cells (human CCK-BR [2])	inositol phosphate formation, percent of the CCK-8 induced maximum (human CCK-BR [1]) [%]	intrinsic activity in the rat (gastric acid secretion)	blockade of CCK-8 induced inositol phosphate formation (human CCK-BR [3])
Cc1cccc(NC(=O)N[C@@H]2N=C(c3ccccc3)c3ccccc3N(C)C2=O)c1 [L-365,260]	little, if any, effect				
CC1(C)[C@H]2CC[C@@]1(C)[C@H](OC(=O)N[C@](C)(Cc1c[nH]c3ccccc13)C(=O)NC[C@H](NC(=O)CCC(=O)O)c1ccccc1)C2 [PD 135,158]		"true" antagonist	23		
C[C@](Cc1c[nH]c2ccccc12)(NC(=O)OC1C2CC3CC(C2)CC1C3)C(=O)NC[C@H](NC(=O)/C=C/C(=O)O)c1ccccc1 (stereo partly shown) [PD 136,450]			43	no appreciable intrinsic activity	
Cc1cccc(NC(=O)N[C@@H]2N=C(c3ccccc3)c3ccccc3N(CC(=O)c3ccccc3C)C2=O)c1 [YM022, (R)-1-[2,3-dihydro-1-(2'-methylphenacyl)-2-oxo-5-phenyl-1H-1,4-benzodiazepin-3-yl]-3-(3-methylphenyl)urea]	little, if any, effect				completely blocks
